ChEMBL document CHEMBL1201862, “PubChem BioAssay data set” (2004)
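Method: 48-hour compound exposure of cells in 96-well plates, five concentrations, linear interpolation of endpoints. At the GI50, growth is halved.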 Calls of active or inactive are those of the source. Cut-off read from the data, not from the text of the source: active = GI50 up to about 1.1 µM and inactive = higher.

Assays:
Assay in all cases: NCI tumour cell line growth inhibition, 48 h
DMS-273 = tested on: DMS-273
KM-20L2 = tested on: KM-20L2
M19-MEL = tested on: M19-MEL
CAKI-1 = tested on: CAKI-1
SK-MEL-28 = tested on: SK-MEL-28
K562 = tested on: K562
KM12 = tested on: KM12
HT-29 = tested on: HT-29
HCC 2998 = tested on: HCC 2998
EKVX = tested on: EKVX
XF498 = tested on: XF498
SN12C = tested on: SN12C
IGROV-1 = tested on: IGROV-1
OVCAR-5 = tested on: OVCAR-5
SK-MEL-2 = tested on: SK-MEL-2
SNB-78 = tested on: SNB-78
SF-268 = tested on: SF-268
UO-31 = tested on: UO-31
RXF 393 = tested on: RXF 393
NCI/ADR-RES = tested on: NCI/ADR-RES

Row | SMILES | GI50 (DMS-273) | GI50 (KM-20L2) | GI50 (M19-MEL) | GI50 (CAKI-1) | GI50 (SK-MEL-28) | GI50 (K562) | GI50 (KM12) | GI50 (HT-29) | GI50 (HCC 2998) | GI50 (EKVX) | GI50 (XF498) | GI50 (SN12C) | GI50 (IGROV-1) | GI50 (OVCAR-5) | GI50 (SK-MEL-2) | GI50 (SNB-78) | GI50 (SF-268) | GI50 (UO-31) | GI50 (RXF 393) | GI50 (NCI/ADR-RES)
1 | CC1SC(c2ccccc2)N(Nc2c3ccccc3nc3ccccc23)C1=O (centres undefined) | > 100 µM (inactive) | > 100 µM (inactive) | > 100 µM (inactive) | 46.9 µM (inactive) | > 100 µM (inactive) | 40.6 µM (inactive) | 71.4 µM (inactive) | > 100 µM (inactive) | > 100 µM (inactive) | 48.2 µM (inactive) | > 100 µM (inactive) | > 100 µM (inactive) | 27 µM (inactive) | 78.7 µM (inactive) | > 100 µM (inactive) | > 100 µM (inactive) | > 100 µM (inactive) | 20.4 µM (inactive) |  | 
2 | O=C(O)CCC(NC(=O)c1ccc(Nc2cnc3cc(C(F)(F)F)ccc3n2)cc1)C(=O)O (centres undefined) | > 100 µM (inactive) | > 100 µM (inactive) |  |  | > 100 µM (inactive) | > 100 µM (inactive) | > 100 µM (inactive) | > 100 µM (inactive) | > 100 µM (inactive) | > 100 µM (inactive) | > 100 µM (inactive) | > 100 µM (inactive) | > 100 µM (inactive) | > 100 µM (inactive) | > 100 µM (inactive) | > 100 µM (inactive) | > 100 µM (inactive) | > 100 µM (inactive) | > 100 µM (inactive) | > 100 µM (inactive)
3 | CC12CCC3C(CCC4(O)C=CCCC34C=O)C1(O)CC(O)C2c1ccc(=O)oc1 (centres undefined) | < 0.05 µM (active) | 0.0668 µM (active) | 0.0851 µM (active) | 0.0578 µM (active) | 0.134 µM (active) | 0.0741 µM (active) | 0.0792 µM (active) | 0.117 µM (active) | 0.117 µM (active) | 0.0564 µM (active) | 0.0873 µM (active) | 0.0519 µM (active) | 0.0681 µM (active) | 0.191 µM (active) | 0.111 µM (active) | 0.0593 µM (active) | < 0.05 µM (active) | 0.0685 µM (active) | < 0.05 µM (active) | 0.0679 µM (active)
4 | CCCCN1C=CN2c3nc4cc(C)c(C)cc4n3C(C(=O)OC)=C(C(=O)OC)C12 (centres undefined) | > 100 µM (inactive) | > 100 µM (inactive) | > 100 µM (inactive) | > 100 µM (inactive) |  | > 100 µM (inactive) |  | > 100 µM (inactive) | > 100 µM (inactive) | > 100 µM (inactive) | > 100 µM (inactive) | > 100 µM (inactive) | > 100 µM (inactive) | > 100 µM (inactive) | > 100 µM (inactive) | > 100 µM (inactive) | > 100 µM (inactive) | > 100 µM (inactive) | > 100 µM (inactive) | 
5 | O=[N+]([O-])c1ccc(Nc2cccc3c4cc[nH]c(-c5ccccc5)c-4nc23)c([N+](=O)[O-])c1 | > 100 µM (inactive) | > 100 µM (inactive) | > 100 µM (inactive) |  | > 100 µM (inactive) | 36.1 µM (inactive) | > 100 µM (inactive) | > 100 µM (inactive) | > 100 µM (inactive) | > 100 µM (inactive) | > 100 µM (inactive) | > 100 µM (inactive) | > 100 µM (inactive) | > 100 µM (inactive) | > 100 µM (inactive) | > 100 µM (inactive) | > 100 µM (inactive) | > 100 µM (inactive) | > 100 µM (inactive) | > 100 µM (inactive)
6 | COC(=O)C1=C(OC(=O)/C(=C/c2ccc(Cl)cc2)c2ccc(Cl)cc2)C(C(=O)OC)[C@]2(O)[C@@H](C(=O)OC)[C@H]1C[C@@H](c1ccccc1)[C@@H]2C(=O)OC (some centres undefined) |  |  |  | > 100 µM (inactive) | > 100 µM (inactive) | 91.6 µM (inactive) | > 100 µM (inactive) | > 100 µM (inactive) |  | 70.5 µM (inactive) |  | > 100 µM (inactive) | 38.8 µM (inactive) | > 100 µM (inactive) | > 100 µM (inactive) |  | > 100 µM (inactive) |  | > 100 µM (inactive) | > 100 µM (inactive)
7 | C/C=C/c1cc(=O)c([C@@H]2OC(=O)c3cc(OC)cc(OC)c32)co1 [VERMISTATIN] |  | 67.5 µM (inactive) | 35.1 µM (inactive) | 42.1 µM (inactive) | 25.3 µM (inactive) | 33.8 µM (inactive) | 31.6 µM (inactive) | 34.6 µM (inactive) | 26 µM (inactive) | 65.5 µM (inactive) |  |  | 37 µM (inactive) |  | 28.5 µM (inactive) |  | 43.5 µM (inactive) | 24.4 µM (inactive) | 42.2 µM (inactive) | 
8 | CC(C)=CCc1c(O)ccc2c1OC1c3ccc(O)c(CC=C(C)C)c3OCC21 (centres undefined) | 6.4 µM (inactive) | 18.7 µM (inactive) | 11.4 µM (inactive) | 9.02 µM (inactive) | 13.4 µM (inactive) | 4.42 µM (inactive) | 10.2 µM (inactive) | > 44.4 µM (inactive) | 13.2 µM (inactive) | 5.62 µM (inactive) | 17.8 µM (inactive) | 14 µM (inactive) | 10.3 µM (inactive) | 13.9 µM (inactive) | 18 µM (inactive) | 12.1 µM (inactive) | 11.2 µM (inactive) | 11.7 µM (inactive) | 8.09 µM (inactive) | 8.09 µM (inactive)
